Experimental data: ChEMBL document CHEMBL5126549, “Overview of SIRT5 as a potential therapeutic target: Structure, function and inhibitors” (Eur J Med Chem, 2022)
*1 amine or outer side, *2 acyl side, *3 side chain or, on linkers, in order; H or OH if unused. Where a SMILES comes first, the peptide text is derived from it. Bridges are numbered along the chain shown (N, C = ends). [ ]: non-standard residue; d: D form. X1 = O=C(O)CCNC(=S)NCCCC[C@H](N[*:1])C(=O)[*:2]; Suberoyl = O=C(CCCCCCC(=O)[*:2])[*:1]

Assays:
[1] = target: T1, NAD-dependent protein deacylase sirtuin-5, mitochondrial (Homo sapiens, UniProt Q9NXA8); assay: Inhibition of SIRT5 (unknown origin)
Target sequence in this assay (Q9NXA8 whole entry): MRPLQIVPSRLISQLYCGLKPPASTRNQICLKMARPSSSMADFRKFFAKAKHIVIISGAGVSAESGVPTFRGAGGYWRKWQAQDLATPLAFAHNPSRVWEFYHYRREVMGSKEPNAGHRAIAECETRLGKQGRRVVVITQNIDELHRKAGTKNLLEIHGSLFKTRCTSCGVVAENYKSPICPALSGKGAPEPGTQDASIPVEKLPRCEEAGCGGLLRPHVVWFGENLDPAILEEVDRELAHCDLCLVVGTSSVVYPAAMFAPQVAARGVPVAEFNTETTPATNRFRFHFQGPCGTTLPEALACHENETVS

[2] = target: T2, NAD-dependent protein deacetylase sirtuin-1 (Homo sapiens, UniProt Q96EB6); assay: Inhibition of SIRT1 (unknown origin)
T2 sequence (Q96EB6 whole entry): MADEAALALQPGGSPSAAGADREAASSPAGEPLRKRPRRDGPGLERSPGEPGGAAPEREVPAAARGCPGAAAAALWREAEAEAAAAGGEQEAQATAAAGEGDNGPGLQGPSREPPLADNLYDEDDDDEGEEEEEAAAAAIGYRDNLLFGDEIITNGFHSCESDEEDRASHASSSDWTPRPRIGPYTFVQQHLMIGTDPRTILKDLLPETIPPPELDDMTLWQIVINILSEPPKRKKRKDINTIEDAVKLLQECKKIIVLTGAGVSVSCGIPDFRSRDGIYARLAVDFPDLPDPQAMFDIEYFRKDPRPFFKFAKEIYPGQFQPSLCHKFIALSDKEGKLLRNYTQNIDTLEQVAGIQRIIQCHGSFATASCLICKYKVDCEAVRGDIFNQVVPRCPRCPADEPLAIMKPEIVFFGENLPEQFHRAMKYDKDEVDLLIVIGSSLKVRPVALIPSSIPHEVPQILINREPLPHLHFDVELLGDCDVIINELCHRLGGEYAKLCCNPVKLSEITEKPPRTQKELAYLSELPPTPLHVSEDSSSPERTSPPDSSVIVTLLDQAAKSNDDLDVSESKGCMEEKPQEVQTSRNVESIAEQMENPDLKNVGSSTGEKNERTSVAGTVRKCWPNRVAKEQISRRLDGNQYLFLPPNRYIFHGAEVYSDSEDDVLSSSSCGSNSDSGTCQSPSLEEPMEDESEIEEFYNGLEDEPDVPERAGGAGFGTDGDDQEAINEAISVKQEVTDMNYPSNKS

[3] = target: T3, NAD-dependent protein deacetylase sirtuin-2 (Homo sapiens, UniProt Q8IXJ6); assay: Inhibition of SIRT2 (unknown origin)
T3 sequence (Q8IXJ6 whole entry): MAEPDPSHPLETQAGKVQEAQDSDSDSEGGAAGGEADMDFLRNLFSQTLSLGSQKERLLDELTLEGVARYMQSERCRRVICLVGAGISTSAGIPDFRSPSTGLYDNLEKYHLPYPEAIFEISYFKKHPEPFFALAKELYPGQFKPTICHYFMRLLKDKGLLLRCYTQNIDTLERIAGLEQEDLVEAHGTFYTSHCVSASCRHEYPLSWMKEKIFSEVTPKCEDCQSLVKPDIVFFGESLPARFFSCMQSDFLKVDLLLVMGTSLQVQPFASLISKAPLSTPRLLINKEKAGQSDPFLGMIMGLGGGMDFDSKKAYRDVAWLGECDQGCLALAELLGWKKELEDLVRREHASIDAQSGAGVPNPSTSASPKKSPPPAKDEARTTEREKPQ

[4] = target: T1, NAD-dependent protein deacylase sirtuin-5, mitochondrial; assay: Inhibition of human recombinant SIRT5 using Benzyl-Lys(succinyl)-AMC as substrate incubated for 2 hrs by fluorescence based assay
Target sequence in this assay (Q9NXA8 whole entry): as the sequence (Q9NXA8 whole entry) above

[5] = target: T1, NAD-dependent protein deacylase sirtuin-5, mitochondrial; assay: Inhibition of GST-tagged SIRT5 (unknown origin) incubated for 5 mins by HPLC based analysis
Target sequence in this assay (Q9NXA8 whole entry): as the sequence (Q9NXA8 whole entry) above

[6] = target: T1, NAD-dependent protein deacylase sirtuin-5, mitochondrial; assay: Inhibition of GST-tagged SIRT5 (unknown origin) incubated for 10 mins by HPLC based analysis
Target sequence in this assay (Q9NXA8 whole entry): as the sequence (Q9NXA8 whole entry) above

[7] = target: T1, NAD-dependent protein deacylase sirtuin-5, mitochondrial; assay: Inhibition of SIRT5 (unknown origin) at 100 uM relative to control
Target sequence in this assay (Q9NXA8 37-310 limits assumed): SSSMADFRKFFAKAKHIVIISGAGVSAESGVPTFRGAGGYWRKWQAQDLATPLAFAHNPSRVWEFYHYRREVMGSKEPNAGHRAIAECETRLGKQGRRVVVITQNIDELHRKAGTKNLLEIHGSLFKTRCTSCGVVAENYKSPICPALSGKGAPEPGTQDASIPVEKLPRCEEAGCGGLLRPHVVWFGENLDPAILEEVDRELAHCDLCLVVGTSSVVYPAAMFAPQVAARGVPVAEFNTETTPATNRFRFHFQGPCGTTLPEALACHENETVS

[8] = target: T1, NAD-dependent protein deacylase sirtuin-5, mitochondrial; assay: Inhibition of SIRT5 (unknown origin) at 30 uM relative to control
Target sequence in this assay (Q9NXA8 37-310 limits assumed): as above

[9] = target: T2, NAD-dependent protein deacetylase sirtuin-1; assay: Inhibition of human N-terminal His6 tagged SIRT1 (183-505-(GGGS)2-641-665 residues) expressed in Escherichia coli BL21 cells
[10] = target: T4, NAD-dependent protein deacetylase sirtuin-3, mitochondrial (Homo sapiens, UniProt Q9NTG7); assay: Inhibition of human SIRT3 (118 to 399 aa) expressed in Escherichia coli BL21 cells
T4 sequence (Q9NTG7 whole entry): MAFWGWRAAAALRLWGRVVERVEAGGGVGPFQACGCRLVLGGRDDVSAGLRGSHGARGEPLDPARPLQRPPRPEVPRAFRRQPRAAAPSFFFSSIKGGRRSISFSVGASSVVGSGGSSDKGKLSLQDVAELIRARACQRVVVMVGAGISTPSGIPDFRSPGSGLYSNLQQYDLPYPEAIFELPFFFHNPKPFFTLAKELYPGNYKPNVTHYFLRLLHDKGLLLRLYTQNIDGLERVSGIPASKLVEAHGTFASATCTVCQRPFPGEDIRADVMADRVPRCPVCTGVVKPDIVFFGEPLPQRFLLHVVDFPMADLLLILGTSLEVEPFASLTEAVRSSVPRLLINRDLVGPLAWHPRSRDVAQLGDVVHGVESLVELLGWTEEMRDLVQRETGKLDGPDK

Work on N=C(N)NCCCC[C@@H]1NC(=O)CCCCC(=O)NCCCC[C@@H](C(N)=O)NC(=O)[C@H](CCCCNC(=S)NCCC(=O)O)NC1=O yielded an IC50 [1] of 6.5 µM.
For O=C(O)CC(=S)NCCCC[C@H](NC(=O)OCc1ccccc1)C(=O)Nc1ccccc1, the IC50 [2] was 256 µM, the IC50 [3] was 256 µM and the IC50 [1] was 5 µM.
CC1=NN(c2ccc(C)c(Cl)c2)C(=O)/C1=C\c1ccc(-c2ccc(C(=O)O)cc2)o1 gave an IC50 [4] of 18.3 µM.
For CNC(=O)c1cccc(NC(=O)/C(C#N)=C/c2ccc(-c3ccc(C(=O)O)cc3)o2)c1, the IC50 [4] was 8 µM.
Molecule O=C(O)CCNC(=S)NCCCC[C@H](NS(=O)(=O)c1cccc(F)c1)C(=O)N[C@@H](Cc1c[nH]c2ccccc12)C(=O)NC1CCCC1 has an IC50 [1] of 0.11 µM.
Work on CC(=O)N[C@H]1CCCCNC(=O)CCCCCCC(=O)NCCCC[C@@H](C(=O)N[C@H](C(N)=O)[C@@H](C)O)NC(=O)[C@H](CCCCNC(=S)NCCC(=O)O)NC(=O)[C@H](CCCNC(=N)N)NC1=O (Ac-KR[X1]KT-NH2; linker 1-4 via Suberoyl) yielded an IC50 [5] of 7 µM.
In the case of N#C/C(=C\c1ccc(-c2ccc(C(=O)O)cc2)o1)C(=O)Nc1ccc(C#N)c(F)c1, the IC50 [4] is reported as 5.9 µM.
In the case of O=C(O)CCNC(=S)NCCCC[C@H](NS(=O)(=O)c1cccc(F)c1)C(=O)N[C@@H](Cc1c[nH]c2ccccc12)C(=O)NC1CC1, the IC50 [1] is reported as under 0.3 µM.
CC(=O)NC(CCCCNC(=S)NCCC(=O)O)C(=O)Nc1cccc(O)c1 (stereo unspecified) gave an IC50 [6] of under 15 µM.
N=C(N)NCCCC[C@@H]1NC(=O)CCCCCCC(=O)NCCCC[C@@H](C(N)=O)NC(=O)[C@H](CCCCNC(=S)NCCC(=O)O)NC1=O was tested, and the IC50 [1] was 13.2 µM.
Molecule N#C/C(=C\c1ccc(-c2ccc(C(=O)O)cc2)o1)C(=O)Nc1ccc(Cl)c([N+](=O)[O-])c1 has an IC50 [4] of 9.26 µM.
In the case of CC1(C)CC[C@]2(C(=O)O)CC[C@]3(C)C(=CC[C@@H]4[C@@]5(C)CC[C@H](O)C(C)(C)[C@@H]5CC[C@]43C)[C@@H]2C1 [OLEANOLIC_ACID], the IC50 [1] is reported as 70 µM.
O=C(O)CCNC(=S)NCCCCC(NC(=O)OCc1ccccc1)C(=O)Nc1ccc(O)cc1 (stereo unspecified) showed an IC50 [6] of under 15 µM.
For N=C(N)NCCCC[C@@H]1NC(=O)CCNC(=O)CCC[C@@H](C(N)=O)NC(=O)[C@H](CCCCNC(=S)NCCC(=O)O)NC1=O, the IC50 [1] was 4 µM.
For O=C(O)CCNC(=S)NCCCC[C@H](NS(=O)(=O)c1cccc(F)c1)C(=O)N[C@@H](Cc1c[nH]c2ccccc12)C(=O)NC1CCC1, the IC50 [1] was under 0.3 µM.
O=C(NCCn1c2ccccc2c2ccccc21)Nc1ccc(C(=O)O)cc1 showed an inhibition [7] of 52% and an inhibition [8] of 35%.
CCn1c(=O)n(CC(C)C)c(=O)c2[nH]c(SSc3nc4c([nH]3)c(=O)n(CC(C)C)c(=O)n4CC)nc21 was tested, and the IC50 [9] was 1.77 µM and the IC50 [10] was 0.43 µM.
In the case of CC1(C)CC[C@]2(C(=O)O)[C@H](O)C[C@]3(C)C(=CC[C@@H]4[C@@]5(C)CC[C@H](O)C(C)(C)[C@@H]5CC[C@]43C)[C@@H]2C1, the IC50 [1] is reported as 40 µM.
With O=C(O)CCNC(=S)NCCCCC(NC(=O)OCc1ccccc1)C(=O)Nc1ccccc1O (stereo unspecified) the IC50 [6] was under 15 µM.
CC(C)(C)OC(=O)NC(CCCCNC(=S)NCCC(=O)O)C(=O)Nc1cccc(O)c1 (stereo unspecified) gave an IC50 [6] of under 15 µM.
Work on CC(=O)N[C@H]1CCCCNC(=O)CNC(=O)CCCCCCC(=O)NC(=O)NCCCC[C@@H](C(=O)N[C@H](C(N)=O)[C@@H](C)O)NC(=O)[C@H](CCCCNC(=S)NCCC(=O)O)NC(=O)[C@H](CCCNC(=N)N)NC1=O yielded an IC50 [5] of 6 µM.
N=C(N)NCCCC[C@@H]1NC(=O)CCC(=O)NCCCC[C@@H](C(N)=O)NC(=O)[C@H](CCCCNC(=S)NCCC(=O)O)NC1=O was tested, and the IC50 [1] was 2.2 µM.
